Measured values as given in US20120035244A1, “PARP1 TARGETED THERAPY” (THE REGENTS OF THE UNIVERSITY OF MICHIGAN, priority 2010, published 2012).
Entries after “also recorded” stand apart in the source; their conditions may differ.

How the values were obtained:
PC3-ERG xenografts = assay: PC3-ERG mouse xenograft model; details: P=0.007 for PARP inhibition
Method: Four weeks old male Balb C nu/nu mice were purchased from Charles River, Inc. (Charles River Laboratory, Wilmington, Mass.). VCaP (2×10^6 cells), PC3-luciferase-control (1×10^5 cells) or PC3-luciferase-ERG (1×10^5 cells) stable cells were resuspended in 100 μl of saline with 50% Matrigel (BD Biosciences, Becton Drive, NJ) and were implanted subcutaneously into the left flank region of the mice. Mice were anesthetized using a cocktail of xylazine (80-120 mg/kg, IP) and ketamine (10 mg/kg, IP) for chemical restraint before tumor implantation. All tumors were staged for three week before starting the drug treatment. After week 3 for VCaP cells or after 48 hours for PC3 cells, mice (10 per treatment group) were treated with NU7026 (25 mg/kg, IP), Olaparib (40 mg/kg, IP) daily five times a week. Olaparib was obtained from Axon Medchem (Groningen, The Netherlands). Growth in tumor volume was recorded weekly by using digital calipers and tumor volumes were calculated using the formula (π/6) (L×W2), where L=length of tumor and W=width. Loss of body weight during the course of the study was also monitored weekly.

[1] = tested on: RWPE cells transduced with ERG adenovirus; assay: Basement membrane matrix invasion assay, RWPE cells transduced with ERG adenovirus; format: cell-based, human; details: P<0.01 for DNA-PKcs siRNA or NU7026>10 μM, P<0.05 for all PARP1 siRNA, NU1025 or Olaparib treatments
Method: For invasion assays, the prostate cell lines RWPE-1 and VCaP were transfected with siRNA or negative controls as indicated. NU7026 (Sigma) and NU1025 (Calbiochem) were dissolved in DMSO and stored at −20° C. in the dark. Forty-eight hours post-transfection/transduction, cells were seeded onto the basement membrane matrix (EC matrix, Chemicon, Temecula, Calif.) in the chamber insert with […] pores of a 24-well culture plate in serum free media. Cells were attracted to the lower chamber by the addition of complete media as a chemoattractant. After 48 hours incubation at 37° C. with 5% CO2, the non-invading cells and EC matrix were gently removed with a cotton swab. Invasive cells, which were located on the lower side of the membrane, were stained with crystal violet, air dried and photographed. To quantify the relative number of invaded cells, colorimetric assays were performed by treating the inserts with 150 μl of 10% acetic acid (v/v) and measuring absorbance of each condition at 560 nm using a spectrophotometer (GE Healthcare).

[2] = tested on: Ewing's sarcoma cell lines; assay: Ewing's sarcoma cell lines: soft agar colony formation and neutral COMET assays; format: cell-based; details: with or without 10 μM Olaparib for 48 hours (COMET); soft agar colony formation
Method: The effect of PARP1 inhibitors on Ewing's sarcoma cell lines was assayed. CADO-ES1 or RD-ES1 cells were treated with siRNA for 48 hours. Cells were then harvested and plated in a transwell migration assay. Forty eight hours later, cells were stained with crystal violet and the total number or invaded cells was quantified. Soft agar colony formation was performed on cells treated with or without Olaparib. Neutral COMET assays were performed on a panel of Ewing's Sarcoma cell lines. PC3 was used as an ETS negative control and PC3-ERG for comparison to an ETS positive model. Cells were treated with or without 10 μM Olaparib for 48 hours. D) As in C, except cells were pre-treated with siRNA for 48 hours. All experiments were run in triplicate. Error bars are standard error of the mean.

VCaP = assay: CAM xenograft tumor weight, VCaP; format: in vivo, chicken embryo; details: extended Olaparib treatment, P<0.05
Method: (§1) The CAM assay was performed as described previously (Zijlstra, A., et al., Cancer research 62, 7083-7092 (2002)). Briefly, fertilized eggs were incubated in a rotary humidified incubator at 38° C. with for 10 days. After releasing the CAM by applying mild amount of low pressure to the hole over the air sac and cutting a square 1-cm^2 window encompassing a second hole near the allantoic vein, cultured human cells that had been pre-treated with siRNA as indicated were detached by trypsinization and re-suspended in complete medium prior to implantation of 2×10^6 cells adjacent to the mesenchyme in each egg. The windows were subsequently, sealed and the eggs were returned to a stationary incubator. Cells were then treated as indicated with 40 mg/kg body weight Olaparib which was administered on day 13, 15 and 17. Day 18 embryos were sacrificed. Tumors were then excised and weighed. […] After incubation of either the metastasis or intravasation assays, the extra-embryonic tumor and CAM, as well as the embryonic liver were harvested and analyzed for the presence of tumor cells by quantitative human alu-specific PCR. […] Quantification of human cells in the extracted DNA was done as described^14. Fluorogenic TaqMan qPCR probes were applied as above, and DNA copy numbers were quantified.

MDA-MB-231 (BRCA1/2 WT) = assay: CAM xenograft tumors, MDA-MB-231; format: in vivo, chicken embryo; details: Olaparib treatment
Method: as §1

PC3-LACZ xenografts = assay: PC3-LACZ mouse xenograft model; format: in vivo, mice; details: PC3-LACZ (ETS negative)
From the text: (§2) Olaparib was obtained from Axon Medchem (Groningen, The Netherlands).

PC3-ERG cells = assay: Neutral COMET assay, ERG overexpressing PC3 cells versus controls; format: cell-based, human
[3] = tested on: PC3 cells expressing BRCA2 shRNA; assay: γ-H2A.X immunofluorescence, PC3 cells expressing BRCA2 shRNA; format: cell-based, human; details: BRCA2 depleted PC3 cells, Olaparib
Method: Cells were seeded at 25,000 cells/mL in 4-well chamber slide 24 hours prior to the addition of siRNA or drug as indicated. Merbarone (Sigma) was dissolved in DMSO and stored at 4° C. Cells were then washed once in PBS, fixed for 15 minutes in 100% methanol, washed in PBS, permeabilized for 5 minutes in PBS containing 0.2% Triton-X, washed twice in PBS, blocked for 30 minutes in PBS containing 0.5% donkey serum (Sigma, St. Louis, Mo.), held for 45 minutes in PBS containing 0.5% donkey serum and primary antibody: anti-γ-H2A.X mouse monoclonal (Millipore Cat #05-636), anti-γ-H2A.X rabbit polyclonal (Cell Signaling, Cat #9719, Danvers, Mass.), and anti-53BP1 rabbit polyclonal (Cell Signaling, Cat #4937, Danvers, Mass.) washed 3 times with PBS, held for 30 minutes in PBS containing 0.5% donkey serum and secondary antibody: Alexa Fluor 488-anti-Mouse (Invitrogen) or Alexa Fluor 594-anti-Rabbit (Invitrogen). Cells were then stained with DAPI for 5 minutes and slides were mounted 12 hours prior to analysis using Vectashield (Vector laboratories, Burlingame, Calif.). Images were taken using 100× oil lens on an Olympus Confocal microscope at the University of Michigan microscopy imaging lab.

[4] = tested on: ERG-target gene expression; assay: qPCR of ERG-target genes in staged PC3-ERG tumors; format: in vivo, mice; details: 4 hours, 40 mg/kg Olaparib or 25 mg/kg NU7026
LNCaP = assay: CAM xenograft tumor weight, LNCaP; format: in vivo, chicken embryo; details: extended Olaparib treatment, P<0.01
Method: as §1

panel of cell lines = assay: WST chemosensitivity assay (72 hours); format: cell-based; details: after 72 hours, any of the cell lines tested
PC3 xenografts = assay: PC3 (PC3-control) mouse xenograft model; format: in vivo, mice; details: PC3 / PC3-control (ETS negative); Olaparib 40 mg/kg IP, NU7026 25 mg/kg IP
From the text: as §2

22RV1 xenografts = assay: 22RV1 mouse xenograft model; format: in vivo, mice; details: 22RV1 (ETS negative), Olaparib
From the text: as §2

With O=C(c1cc(Cc2n[nH]c(=O)c3ccccc23)ccc1F)N1CCN(C(=O)C2CC2)CC1 [Olaparib, 4-[3-(4-Cyclopropanecarbonylpiperazine-1-carbonyl)-4-fluorobenzyl]-2H-phthalazin-1-one] the xenograft growth (PC3-ERG xenografts) was “significantly sensitize the PC3 cells to PARP inhibition”, the ERG-driven cell invasion [1] was “blocks ERG-mediated RWPE cell invasion; also recorded: significant reduction” and the “sensitivity of Ewing's sarcoma cell lines” value [2] was “sensitive to PARP1; also recorded: sensitive to PARP inhibition”. The “tumor size (weight) on CAM” value (VCaP) was “significantly smaller”, the effect on tumors (MDA-MB-231 (BRCA1/2 WT)) was “no measurable effect” and the xenograft growth (PC3-LACZ xenografts) was “did not significantly inhibit xenograft growth”. For the same compound, the “potentiated DNA damage (COMET), time course” value (PC3-ERG cells; PC3-ERG relative to PC3-LACZ, 0.5, 1, 24 and 48 hr exposure, as early as 30 min (p=0.002)) was “potentiated DNA damage was observed”, the “COMET tail moment increase, ERG positive cells versus controls” value (PC3-ERG cells; PC3 cells with and without Olaparib, P=0.03, two-way ANOVA) was “significantly greater increase in the tail moments” and the γ-H2A.X staining [3] was “similarly dramatic increase in γ-H2A.X staining”. For the same compound, the “ERG-target gene expression in tumors (qPCR)” value [4] was “loss of ERG-target gene expression”, the “tumor size (weight) on CAM” value (LNCaP) was “significantly smaller” and the “in vitro cell proliferation rate” value (panel of cell lines) was “did not have an effect”. The xenograft growth (PC3 xenografts) was “did not block the growth; also recorded: did not significantly inhibit xenograft growth” and the xenograft growth (22RV1 xenografts) was “not responsive; also recorded: did not inhibit the growth”.
